In US20220324815A1, “2-PHENOXY-PYRIMIDINE DERIVATIVES AS HERBICIDAL COMPOUNDS” (SYNGENTA CROP PROTECTION AG, priority 2019, published 2022):

Key:
Format in all cases: in vivo
Conditions in all cases: 250 g/ha unless otherwise stated, evaluated after 13 days, five-point scale
[1] = system: Echinochloa crus-galli (ECHCG); experiment: Test 1 glasshouse herbicide test, post-emergence application (Table B1)
Method in brief: (§1)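 Pots sown in standard soil; sprayed 1 day (pre-emergence) or 8 days (post-emergence) after sowing at 250 g/ha unless stated, in acetone/water (50:50) with 0.5% Tween 20. Glasshouse 24/16 °C, 14 h light, 65% humidity; damage scored at 13 days on a 1–5 scale (5=81–100%, 1=0–20%).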

[2] = system: Lolium perenne (LOLPE); experiment: as above
Method in brief: as §1

[3] = system: Solanum nigrum (SOLNI); experiment: as above
Method in brief: as §1

[4] = system: Amaranthus retoflexus (AMARE); experiment: as above
Method in brief: as §1

[5] = system: Setaria faberi (SETFA); experiment: as above
Method in brief: as §1

[6] = system: Ipomoea hederacea (IPOHE); experiment: as above
Method in brief: as §1

[7] = system: Echinochloa crus-galli (ECHCG); experiment: Test 1 glasshouse herbicide test, pre-emergence application (Table B2)
Method in brief: as §1

[8] = system: Lolium perenne (LOLPE); experiment: as above
Method in brief: as §1

[9] = system: Solanum nigrum (SOLNI); experiment: as above
Method in brief: as §1

[10] = system: Amaranthus retoflexus (AMARE); experiment: as above
Method in brief: as §1

[11] = system: Setaria faberi (SETFA); experiment: as above
Method in brief: as §1

[12] = system: Ipomoea hederacea (IPOHE); experiment: as above
Method in brief: as §1

O=S(=O)(CCC(F)(F)F)c1c(Cl)cccc1Oc1ncc(Cl)cn1 [Compound A12]
5 (5=81 to 100%): % phytotoxicity ECHCG, post-emergence application [1] | % phytotoxicity LOLPE, post-emergence application [2] | % phytotoxicity SOLNI, post-emergence application [3] | % phytotoxicity AMARE, post-emergence application [4] | % phytotoxicity SETFA, post-emergence application [5] | % phytotoxicity ECHCG, pre-emergence application [7] | % phytotoxicity LOLPE, pre-emergence application [8] | % phytotoxicity SOLNI, pre-emergence application [9] | % phytotoxicity AMARE, pre-emergence application [10] | % phytotoxicity SETFA, pre-emergence application [11] | % phytotoxicity IPOHE, pre-emergence application [12]
4 (4=61 to 80%): % phytotoxicity IPOHE, post-emergence application [6]

N#Cc1cccc(Oc2ncc(Cl)cn2)c1SCCC(F)(F)F [Compound A13]
5 (5=81 to 100%): % phytotoxicity ECHCG, post-emergence application [1] | % phytotoxicity LOLPE, post-emergence application [2] | % phytotoxicity SOLNI, post-emergence application [3] | % phytotoxicity AMARE, post-emergence application [4] | % phytotoxicity SETFA, post-emergence application [5] | % phytotoxicity ECHCG, pre-emergence application [7] | % phytotoxicity LOLPE, pre-emergence application [8] | % phytotoxicity SOLNI, pre-emergence application [9] | % phytotoxicity AMARE, pre-emergence application [10] | % phytotoxicity SETFA, pre-emergence application [11]
4 (4=61 to 80%): % phytotoxicity IPOHE, post-emergence application [6] | % phytotoxicity IPOHE, pre-emergence application [12]

N#Cc1cccc(Oc2ncc(Cl)cn2)c1[S+]([O-])CCC(F)(F)F (stereo not drawn) [Compound A14]
5 (5=81 to 100%): % phytotoxicity ECHCG, post-emergence application [1] | % phytotoxicity SOLNI, post-emergence application [3] | % phytotoxicity AMARE, post-emergence application [4] | % phytotoxicity SETFA, post-emergence application [5] | % phytotoxicity IPOHE, post-emergence application [6] | % phytotoxicity ECHCG, pre-emergence application [7] | % phytotoxicity SOLNI, pre-emergence application [9] | % phytotoxicity AMARE, pre-emergence application [10] | % phytotoxicity SETFA, pre-emergence application [11] | % phytotoxicity IPOHE, pre-emergence application [12]
4 (4=61 to 80%): % phytotoxicity LOLPE, post-emergence application [2]
3 (3=41 to 60%): % phytotoxicity LOLPE, pre-emergence application [8]

N#Cc1cccc(Oc2ncc(Cl)cn2)c1S(=O)(=O)CCC(F)(F)F [Compound A15]
4 (4=61 to 80%): % phytotoxicity LOLPE, post-emergence application [2]
5 (5=81 to 100%): % phytotoxicity ECHCG, post-emergence application [1] | % phytotoxicity SOLNI, post-emergence application [3] | % phytotoxicity AMARE, post-emergence application [4] | % phytotoxicity SETFA, post-emergence application [5] | % phytotoxicity IPOHE, post-emergence application [6] | % phytotoxicity ECHCG, pre-emergence application [7] | % phytotoxicity LOLPE, pre-emergence application [8] | % phytotoxicity SOLNI, pre-emergence application [9] | % phytotoxicity AMARE, pre-emergence application [10] | % phytotoxicity SETFA, pre-emergence application [11] | % phytotoxicity IPOHE, pre-emergence application [12]

Clc1cnc(Oc2ccccc2SCc2ccccc2)nc1 [Compound A16]
2 (2=21 to 40%): % phytotoxicity SETFA, post-emergence application [5] | % phytotoxicity ECHCG, pre-emergence application [7] | % phytotoxicity SETFA, pre-emergence application [11]
4 (4=61 to 80%): % phytotoxicity AMARE, post-emergence application [4] | % phytotoxicity AMARE, pre-emergence application [10]
1 (1=0 to 20%): % phytotoxicity ECHCG, post-emergence application [1] | % phytotoxicity LOLPE, post-emergence application [2] | % phytotoxicity IPOHE, post-emergence application [6] | % phytotoxicity LOLPE, pre-emergence application [8] | % phytotoxicity SOLNI, pre-emergence application [9] | % phytotoxicity IPOHE, pre-emergence application [12]
3 (3=41 to 60%): % phytotoxicity SOLNI, post-emergence application [3]

O=S(=O)(CCCC(F)(F)F)c1c(Cl)cccc1Oc1ncc(Cl)cn1 [Compound A24]
4 (4=61 to 80%): % phytotoxicity LOLPE, pre-emergence application [8]
5 (5=81 to 100%): % phytotoxicity ECHCG, post-emergence application [1] | % phytotoxicity LOLPE, post-emergence application [2] | % phytotoxicity SOLNI, post-emergence application [3] | % phytotoxicity AMARE, post-emergence application [4] | % phytotoxicity SETFA, post-emergence application [5] | % phytotoxicity IPOHE, post-emergence application [6] | % phytotoxicity ECHCG, pre-emergence application [7] | % phytotoxicity SOLNI, pre-emergence application [9] | % phytotoxicity AMARE, pre-emergence application [10] | % phytotoxicity SETFA, pre-emergence application [11] | % phytotoxicity IPOHE, pre-emergence application [12]

FC(F)(F)CCCSc1c(Cl)cccc1Oc1ncc(Cl)cn1 [Compound A25]
3 (3=41 to 60%): % phytotoxicity IPOHE, post-emergence application [6]
1 (1=0 to 20%): % phytotoxicity IPOHE, pre-emergence application [12]
5 (5=81 to 100%): % phytotoxicity ECHCG, post-emergence application [1] | % phytotoxicity LOLPE, post-emergence application [2] | % phytotoxicity SOLNI, post-emergence application [3] | % phytotoxicity AMARE, post-emergence application [4] | % phytotoxicity SETFA, post-emergence application [5] | % phytotoxicity ECHCG, pre-emergence application [7] | % phytotoxicity LOLPE, pre-emergence application [8] | % phytotoxicity SOLNI, pre-emergence application [9] | % phytotoxicity AMARE, pre-emergence application [10] | % phytotoxicity SETFA, pre-emergence application [11]

[O-][S+](CCCC(F)(F)F)c1c(Cl)cccc1Oc1ncc(Cl)cn1 (stereo not drawn) [Compound A26]
5 (5=81 to 100%): % phytotoxicity ECHCG, post-emergence application [1] | % phytotoxicity LOLPE, post-emergence application [2] | % phytotoxicity SOLNI, post-emergence application [3] | % phytotoxicity AMARE, post-emergence application [4] | % phytotoxicity SETFA, post-emergence application [5] | % phytotoxicity IPOHE, post-emergence application [6] | % phytotoxicity ECHCG, pre-emergence application [7] | % phytotoxicity LOLPE, pre-emergence application [8] | % phytotoxicity SOLNI, pre-emergence application [9] | % phytotoxicity AMARE, pre-emergence application [10] | % phytotoxicity SETFA, pre-emergence application [11] | % phytotoxicity IPOHE, pre-emergence application [12]

Clc1ccc(CSc2ccccc2Oc2ncc(Cl)cn2)cc1 [Compound A27]
4 (4=61 to 80%): % phytotoxicity ECHCG, pre-emergence application [7] | % phytotoxicity SETFA, pre-emergence application [11]
2 (2=21 to 40%): % phytotoxicity ECHCG, post-emergence application [1] | % phytotoxicity SETFA, post-emergence application [5] | % phytotoxicity IPOHE, post-emergence application [6] | % phytotoxicity SOLNI, pre-emergence application [9]
5 (5=81 to 100%): % phytotoxicity AMARE, post-emergence application [4] | % phytotoxicity AMARE, pre-emergence application [10]
1 (1=0 to 20%): % phytotoxicity LOLPE, post-emergence application [2] | % phytotoxicity LOLPE, pre-emergence application [8] | % phytotoxicity IPOHE, pre-emergence application [12]
3 (3=41 to 60%): % phytotoxicity SOLNI, post-emergence application [3]

N#Cc1cccc(Oc2ncc(Cl)cn2)c1SCCCC(F)(F)F [Compound A28, 3-(5-chloropyrimidin-2-yl)oxy-2-(4,4,4-trifluorobutylsulfanyl)benzonitrile]
5 (5=81 to 100%): % phytotoxicity ECHCG, post-emergence application [1] | % phytotoxicity LOLPE, post-emergence application [2] | % phytotoxicity SOLNI, post-emergence application [3] | % phytotoxicity AMARE, post-emergence application [4] | % phytotoxicity SETFA, post-emergence application [5] | % phytotoxicity IPOHE, post-emergence application [6] | % phytotoxicity ECHCG, pre-emergence application [7] | % phytotoxicity LOLPE, pre-emergence application [8] | % phytotoxicity SOLNI, pre-emergence application [9] | % phytotoxicity AMARE, pre-emergence application [10] | % phytotoxicity SETFA, pre-emergence application [11] | % phytotoxicity IPOHE, pre-emergence application [12]

N#Cc1cccc(Oc2ncc(Cl)cn2)c1[S+]([O-])CCCC(F)(F)F (stereo not drawn) [Compound A29, 3-(5-chloropyrimidin-2-yl)oxy-2-(4,4,4-trifluorobutylsulfinyl)benzonitrile]
5 (5=81 to 100%): % phytotoxicity ECHCG, post-emergence application [1] | % phytotoxicity LOLPE, post-emergence application [2] | % phytotoxicity SOLNI, post-emergence application [3] | % phytotoxicity AMARE, post-emergence application [4] | % phytotoxicity SETFA, post-emergence application [5] | % phytotoxicity IPOHE, post-emergence application [6] | % phytotoxicity ECHCG, pre-emergence application [7] | % phytotoxicity LOLPE, pre-emergence application [8] | % phytotoxicity SOLNI, pre-emergence application [9] | % phytotoxicity AMARE, pre-emergence application [10] | % phytotoxicity SETFA, pre-emergence application [11] | % phytotoxicity IPOHE, pre-emergence application [12]
